Measured values reported in ChEMBL document CHEMBL3045724, “Synthesis, biopharmaceutical characterization, and antimicrobial study of novel azo dyes of 7-hydroxy-4-methylcoumarin” (2013).

Tests used:
Type in all cases: functional
Aspergillus niger = experiment: Antimicrobial activity against Aspergillus niger assessed as diameter of growth inhibition zone
Escherichia coli = experiment: Antimicrobial activity against Escherichia coli assessed as diameter of growth inhibition zone after 48 hr by agar cup plate method
Salmonella typhi = experiment: Antimicrobial activity against Salmonella enterica subsp. enterica serovar Typhi assessed as diameter of growth inhibition zone after 48 hr by agar cup plate method
Staphylococcus aureus = experiment: Antimicrobial activity against Staphylococcus aureus assessed as diameter of growth inhibition zone after 48 hr by agar cup plate method
Bacillus subtilis = experiment: Antimicrobial activity against Bacillus subtilis assessed as diameter of growth inhibition zone after 48 hr by agar cup plate method

| Structure (SMILES) | inhibition zone (IZ) (Aspergillus niger) | inhibition zone (IZ) (Escherichia coli) | inhibition zone (IZ) (Salmonella typhi) | inhibition zone (IZ) (Staphylococcus aureus) | inhibition zone (IZ) (Bacillus subtilis) |
| --- | --- | --- | --- | --- | --- |
| Cc1c/c(=N/CC/N=c2/cc(C)c3ccc(O)c(/N=N/c4cccc5ccccc45)c3o2)oc2c(/N=N/c3cccc4ccccc34)c(O)ccc12 | >15 mm | >15 mm | >15 mm | >15 mm | >15 mm |
| Cc1c/c(=N/CC/N=c2/cc(C)c3ccc(O)c(/N=N/c4ccccn4)c3o2)oc2c(/N=N/c3ccccn3)c(O)ccc12 | >15 mm | >15 mm | >15 mm | >15 mm | >15 mm |
| Cc1c/c(=N/CC/N=c2/cc(C)c3ccc(O)c(/N=N/c4cccnc4)c3o2)oc2c(/N=N/c3cccnc3)c(O)ccc12 | <5 mm | 10 mm | >15 mm | >15 mm | >15 mm |
| CN[C@@H]1[C@H](O[C@H]2[C@H](O[C@H]3[C@H](O)[C@@H](O)[C@H](N=C(N)N)[C@@H](O)[C@@H]3N=C(N)N)O[C@@H](C)[C@]2(O)C=O)O[C@@H](CO)[C@H](O)[C@H]1O [STREPTOMYCIN] | >15 mm | 10 mm | >15 mm | >15 mm | >15 mm |
| Cc1c/c(=N/CC/N=c2/cc(C)c3ccc(O)c(/N=N/c4ccncc4)c3o2)oc2c(/N=N/c3ccncc3)c(O)ccc12 | >15 mm | >15 mm | 10 mm | >15 mm | 10 mm |
| Cc1c/c(=N/CC/N=c2/cc(C)c3ccc(O)c(/N=N/C4=NCCS4)c3o2)oc2c(/N=N/C3=NCCS3)c(O)ccc12 | >15 mm | >15 mm | >15 mm | >15 mm | 10 mm |
| Cc1c/c(=N/CC/N=c2/cc(C)c3ccc(O)c(/N=N/c4c(C)n(C)n(-c5ccccc5)c4=O)c3o2)oc2c(/N=N/c3c(C)n(C)n(-c4ccccc4)c3=O)c(O)ccc12 | >15 mm | 10 mm |  | 10 mm | >15 mm |
| CC1(C)S[C@@H]2[C@H](NC(=O)[C@H](N)c3ccccc3)C(=O)N2[C@H]1C(=O)O [AMPICILLIN] | 10 mm | >15 mm | >15 mm | 10 mm | >15 mm |
